Assay results reported in patent US6734175B2, “Treatments for obesity and methods for identifiying compounds useful for treating obesity” (Pfizer Inc., priority 2000, dated 2004).

What was measured:
melanocortin receptors = assay: [125I]NDP-MSH competition binding assay; conditions: qualitative statement
Description: (§1) The first radioligand binding assay is an [^125I]AGRP competition binding assay. Compounds that attenuate binding of [^125I]AGRP or AGRP would be detected in this assay. It is noted that compounds can attenuate the binding of AGRP to melanocortin 3 and/or 4 receptors by binding to melanocortin 3 and/or 4 receptors or by binding to AGRP itself. The second radioligand binding assay is an assay using radiolabeled melanocortin ligands, for example, [^125I]norleucine D-phenylalanine melanocyte stimulating hormone ([^125I]NDP-MSH). Membranes prepared from cells expressing either melanocortin 3 or 4 receptors are used in the radioligand binding assays. The preparation and use of [^125I]AGRP and [^125I]NDP-MSH is well known in the art. See, for example, Dang et al., Molecular Endocrinology, 13, 148-155 (1999). In addition, the preparation and use of membranes from cells expressing either melanocortin 3 or 4 receptors are also well known in the art. See, Bass, et al., Molecular Pharmacology, 50, 709-715 (1996).
[^125I]NDP-MSH Competition Binding Assay
Specific Activity of [^125I]NDP-MSH is 2200 Ci/mmole. The final concentration of [^125I]NDP-MSH is 250 pM. Therefore, a 5 nM (20×) stock needs to be made in binding buffer. The concentration of [^125I]NDP-MSH varies from 40-60 nM. [^125I]NDP-MSH can be obtained from New England Nuclear, Boston, Mass.
(§2) The competition assay can be run using 96 well plates. […]

melanocortin-4 receptors = biological target: T1, melanocortin-4 receptors (Homo sapiens, UniProt P32245); assay: [125I]AGRP competition binding assay; conditions: particularly melanocortin-4 receptors; qualitative statement
T1 construct: host or cells: membranes from unnamed cells expressing the receptor
T1 sequence (P32245 whole entry): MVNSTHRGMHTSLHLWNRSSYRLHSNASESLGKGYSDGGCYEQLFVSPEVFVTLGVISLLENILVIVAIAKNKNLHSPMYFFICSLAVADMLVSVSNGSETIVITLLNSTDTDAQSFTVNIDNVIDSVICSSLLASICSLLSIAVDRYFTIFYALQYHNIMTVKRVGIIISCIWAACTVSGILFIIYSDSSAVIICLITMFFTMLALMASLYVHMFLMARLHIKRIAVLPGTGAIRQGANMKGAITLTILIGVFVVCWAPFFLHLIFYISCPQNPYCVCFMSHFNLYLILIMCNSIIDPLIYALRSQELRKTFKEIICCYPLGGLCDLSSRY
Description: as §1
[^125I] AGRP Competition Binding Assay
Specific Activity of [^125I]AGRP is 2200 Ci/mmole. The final concentration of [^125I]AGRP is 100 pM. Therefore, a 2 nM (20×) stock needs to be made in binding buffer. The concentration of [^125I]AGRP varies from 40-60 nM. [^125I]AGRP can be obtained from New England Nuclear, Boston, Mass.
as §2

Question: Which “binding of α-melanocyte stimulating hormone to melanocortin receptors” value (melanocortin receptors) does the source give for `O=[N+]([O-])c1ccc(N2C3c4ccccc4CCN3N(c3ccc([N+](=O)[O-])cc3)C3c4ccccc4CCN32)cc1` (centres unmarked) [8,16-bis-(4-nitro-phenyl)-5,6,8,8a,13,14,16,16a-octahydro-[1,2,4,5]tetrazino[6,1-a;3,4-a′]diisoquinoline] here?
Answer: does not attenuate the binding of α-melanocyte stimulating hormone to melanocortin receptors

Question: And the “binding of agouti-related protein to melanocortin receptors” value (melanocortin-4 receptors)?
Answer: attenuates the binding of agouti-related protein to melanocortin receptors
